Earlier results in patent publication US20180318246A1 (SUN PHARMACEUTICAL INDUSTRIES LIMITED, priority 2015, published 2018).
Where a name gives a salt, the structure may show the parent alone.

Permeability coefficient compared with monomethyl fumarate: significantly higher
SMILES: COC(=O)/C=C/C(=O)OC [dimethyl fumarate]
